Our source for the IC50 and EC50 values is patent US20180093956A1, “SUBSTITUTED PHTHALAZINES” (AbbVie Inc., priority 2015, published 2018).

The target of one assay is SUV420H1 enzyme (Homo sapiens, UniProt Q4FZB7). The assay can be described thus: TR-FRET SAH SUV420H1 enzyme inhibition assay. The assay is classed as biochemical. The following applies: Histone Peptide H4(8-30)me1 and SAM, TR-FRET detection of SAH, read-out: TR-FRET SAH_SUV420H1 IC50.
The test system of assay [1] is H4K20me3 in PC-3 cells (SUV420H1 cellular activity). Description: H4K20me3 Cellular PD Assay (high content microscopy). Format: cell-based. The following applies: Homo sapiens, treated for 72 hours, H4K20me3 immunofluorescence, read-out: H4K20me3 Inhibition EC50. Here is the method:
A high content microscopy-based PD assay was used to analyze the decrease of H4K20me3 upon inhibition of SUV420H1 cellular activity. PC-3 cells were plated at 3,000 cells per well in black Collagen I coated 96-well plates (Perkin Elmer, #6005810) in RPMI supplemented with 10% heat inactivated FBS, 1% sodium pyruvate and 1% non-essential amino acids in a 37° C. tissue culture incubator. At 24 hours post seeding, cells were treated with the indicated compounds for 72 hours in an 8-point dose response using half log dilutions from […] and then fixed in 2% formaldhyde (Polysciences, Inc., #04018) for 10 minutes at room temperature. Cells were washed in PBS and permeablized in 0.1% Triton X-100 for 10 minutes at room temperature. After blocking in 1% BSA (Sigma, #A7030) in PBS for 1 hour at room temperature, a mouse monoclonal antibody directed toward H4K20me3 (Santa Cruz, #sc-134216) in antibody dilution buffer (0.3% BSA in PBS) was added for 16 hours at 4° C. Cells were then washed 3 times in PBS and an Alexa Fluor 555 conjugated goat anti-mouse (Life Technologies #A-21424) secondary antibody was added for 1 hour at room temperature. Hoechst 33342 diluted 1:10000 (Life Technologies #H3570) was also added during the secondary antibody incubation. Cells were washed 3 times in PBS and stored in PBS at 4° C. Fluorescent images were acquired within 24 hours on a Cell Insight (Thermo Fisher Scientific) using the Target Activation algorithm. Objects were identified via nuclear Hoescht staining, and changes in average mean intensity in the fluorescent signals of H4K20me3 were quantified using the HCS View software platform (Thermo Fisher Scientific).

Chain of SUV420H1 enzyme (Q4FZB7 whole entry): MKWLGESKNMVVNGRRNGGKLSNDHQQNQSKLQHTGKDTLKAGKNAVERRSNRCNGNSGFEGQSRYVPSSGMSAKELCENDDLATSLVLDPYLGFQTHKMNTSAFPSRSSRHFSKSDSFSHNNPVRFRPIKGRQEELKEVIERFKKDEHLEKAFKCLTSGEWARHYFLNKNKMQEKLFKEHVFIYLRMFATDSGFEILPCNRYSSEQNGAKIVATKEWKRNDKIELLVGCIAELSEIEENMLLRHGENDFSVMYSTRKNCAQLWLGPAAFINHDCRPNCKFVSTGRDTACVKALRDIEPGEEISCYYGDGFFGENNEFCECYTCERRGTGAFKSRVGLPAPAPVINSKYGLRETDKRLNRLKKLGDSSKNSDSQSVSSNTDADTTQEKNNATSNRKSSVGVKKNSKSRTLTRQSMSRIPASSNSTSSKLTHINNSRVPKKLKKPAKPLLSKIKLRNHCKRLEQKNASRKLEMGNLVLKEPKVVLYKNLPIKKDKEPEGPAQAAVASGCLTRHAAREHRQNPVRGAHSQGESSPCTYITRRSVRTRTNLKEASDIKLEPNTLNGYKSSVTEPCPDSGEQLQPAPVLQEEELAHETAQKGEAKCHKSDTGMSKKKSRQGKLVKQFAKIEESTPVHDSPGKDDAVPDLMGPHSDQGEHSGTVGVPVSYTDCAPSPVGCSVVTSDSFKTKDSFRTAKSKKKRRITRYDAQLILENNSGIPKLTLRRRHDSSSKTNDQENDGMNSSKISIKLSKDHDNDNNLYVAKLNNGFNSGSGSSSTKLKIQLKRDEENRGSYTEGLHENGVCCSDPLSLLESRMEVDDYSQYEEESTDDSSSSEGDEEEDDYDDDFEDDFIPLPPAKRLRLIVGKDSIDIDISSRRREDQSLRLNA

As for `O=C(Cn1cc(-c2nnc(NC3CCCC3)c3cc(Cl)c(Cl)cc23)cn1)N1CCC(O)CC1` [Example 64, 2-{4-[6,7-dichloro-4-(cyclopentylamino)phthalazin-1-yl]-1H-pyrazol-1-yl}-1-(4-hydroxypiperidin-1-yl)ethanone], at SUV420H1 enzyme, the IC50 came to 0.188 µM. Moreover, in assay [1], the EC50 came to 6.57 µM.
